Source: the NIST ThermoML archive (doi:10.1021/je050429b)

Details: Gas, Oscillating disk viscometry

CO [methanol]
Details	viscosity [mPa·s]
297.41 K, Amount density=10.1 mol/m3	0.009532
297.43 K, Amount density=8.17 mol/m3	0.009551
297.64 K, Amount density=3.79 mol/m3	0.009594
297.92 K, Amount density=38.68 mol/m3	0.009555
298.16 K, Amount density=6.32 mol/m3	0.009594
298.54 K, Amount density=13.2 mol/m3	0.009579
298.71 K, Amount density=49.53 mol/m3	0.009576
299.79 K, Amount density=32.22 mol/m3	0.009602
299.92 K, Amount density=24.58 mol/m3	0.009618
301.53 K, Amount density=17.93 mol/m3	0.009672
310.88 K, Amount density=24.58 mol/m3	0.009948
311.12 K, Amount density=17.93 mol/m3	0.009959
311.23 K, Amount density=8.17 mol/m3	0.01002
311.6 K, Amount density=32.22 mol/m3	0.009969
311.6 K, Amount density=38.68 mol/m3	0.009971
312.25 K, Amount density=6.32 mol/m3	0.01008
312.54 K, Amount density=3.79 mol/m3	0.0101
313.89 K, Amount density=10.1 mol/m3	0.01008
314.18 K, Amount density=13.2 mol/m3	0.01008
314.2 K, Amount density=49.53 mol/m3	0.01004
324.75 K, Amount density=3.79 mol/m3	0.0105
324.77 K, Amount density=49.53 mol/m3	0.01037
324.78 K, Amount density=32.22 mol/m3	0.01038
325.15 K, Amount density=8.17 mol/m3	0.0105
325.22 K, Amount density=10.1 mol/m3	0.0105
325.59 K, Amount density=17.93 mol/m3	0.01046
325.76 K, Amount density=13.2 mol/m3	0.01049
325.91 K, Amount density=6.32 mol/m3	0.01054
325.98 K, Amount density=24.58 mol/m3	0.01042
326.88 K, Amount density=38.68 mol/m3	0.01044
338.47 K, Amount density=8.17 mol/m3	0.01095
338.62 K, Amount density=10.1 mol/m3	0.01094
338.66 K, Amount density=32.22 mol/m3	0.01083
338.69 K, Amount density=3.79 mol/m3	0.01098
338.72 K, Amount density=38.68 mol/m3	0.0108
338.81 K, Amount density=49.53 mol/m3	0.01077
339.25 K, Amount density=17.93 mol/m3	0.01094
339.34 K, Amount density=13.2 mol/m3	0.01096
339.77 K, Amount density=6.32 mol/m3	0.01101
340.14 K, Amount density=24.58 mol/m3	0.01092
352.35 K, Amount density=49.53 mol/m3	0.01125
352.62 K, Amount density=8.17 mol/m3	0.01143
352.86 K, Amount density=10.1 mol/m3	0.01142
352.91 K, Amount density=3.79 mol/m3	0.01148
352.93 K, Amount density=3.79 mol/m3	0.01144
353.05 K, Amount density=8.17 mol/m3	0.01146
353.06 K, Amount density=38.68 mol/m3	0.01132
353.18 K, Amount density=38.68 mol/m3	0.01134
353.2 K, Amount density=49.53 mol/m3	0.01127
353.22 K, Amount density=13.2 mol/m3	0.01143
353.26 K, Amount density=13.2 mol/m3	0.01143
353.3 K, Amount density=6.32 mol/m3	0.01148
353.44 K, Amount density=10.1 mol/m3	0.01147
353.58 K, Amount density=17.93 mol/m3	0.01143
353.71 K, Amount density=24.58 mol/m3	0.01142
353.78 K, Amount density=32.22 mol/m3	0.01139
355.04 K, Amount density=32.22 mol/m3	0.01143
355.05 K, Amount density=24.58 mol/m3	0.01143
355.5 K, Amount density=6.32 mol/m3	0.01152
355.67 K, Amount density=17.93 mol/m3	0.01148
366.59 K, Amount density=10.1 mol/m3	0.01189
366.82 K, Amount density=8.17 mol/m3	0.01191
366.84 K, Amount density=3.79 mol/m3	0.01191
366.93 K, Amount density=17.93 mol/m3	0.01188
366.99 K, Amount density=32.22 mol/m3	0.01184
367.1 K, Amount density=13.2 mol/m3	0.01189
367.81 K, Amount density=49.53 mol/m3	0.01182
367.84 K, Amount density=6.32 mol/m3	0.01195
367.87 K, Amount density=38.68 mol/m3	0.01184
368.03 K, Amount density=24.58 mol/m3	0.0119
380.86 K, Amount density=10.1 mol/m3	0.01238
380.97 K, Amount density=13.2 mol/m3	0.01236
381.27 K, Amount density=3.79 mol/m3	0.0124
381.27 K, Amount density=49.53 mol/m3	0.0123
381.38 K, Amount density=8.17 mol/m3	0.01241
381.53 K, Amount density=17.93 mol/m3	0.01238
381.9 K, Amount density=38.68 mol/m3	0.01233
381.92 K, Amount density=32.22 mol/m3	0.01237
382.15 K, Amount density=6.32 mol/m3	0.01244
383.55 K, Amount density=24.58 mol/m3	0.01243
394.63 K, Amount density=10.1 mol/m3	0.01285
394.76 K, Amount density=8.17 mol/m3	0.01286
394.88 K, Amount density=49.53 mol/m3	0.01278
395.16 K, Amount density=32.22 mol/m3	0.01282
395.18 K, Amount density=24.58 mol/m3	0.01282
395.23 K, Amount density=17.93 mol/m3	0.01285
395.37 K, Amount density=38.68 mol/m3	0.01281
395.39 K, Amount density=3.79 mol/m3	0.01287
395.4 K, Amount density=13.2 mol/m3	0.01285
396.23 K, Amount density=6.32 mol/m3	0.01291
409.39 K, Amount density=13.2 mol/m3	0.01333
409.51 K, Amount density=10.1 mol/m3	0.01336
409.75 K, Amount density=24.58 mol/m3	0.01333
410.18 K, Amount density=32.22 mol/m3	0.01333
410.35 K, Amount density=38.68 mol/m3	0.01331
411.3 K, Amount density=3.79 mol/m3	0.01343
411.31 K, Amount density=6.32 mol/m3	0.01342
411.32 K, Amount density=49.53 mol/m3	0.01335
412.01 K, Amount density=17.93 mol/m3	0.01338
412.33 K, Amount density=8.17 mol/m3	0.01346
423.31 K, Amount density=8.17 mol/m3	0.01382
423.5 K, Amount density=3.79 mol/m3	0.01383
423.52 K, Amount density=49.53 mol/m3	0.01376
423.77 K, Amount density=13.2 mol/m3	0.01383
423.88 K, Amount density=32.22 mol/m3	0.0138
423.96 K, Amount density=10.1 mol/m3	0.01385
424.38 K, Amount density=17.93 mol/m3	0.01383
424.41 K, Amount density=24.58 mol/m3	0.01382
424.73 K, Amount density=6.32 mol/m3	0.01388
425.1 K, Amount density=38.68 mol/m3	0.0138
437.6 K, Amount density=10.1 mol/m3	0.01431
437.81 K, Amount density=8.17 mol/m3	0.01431
438.41 K, Amount density=13.2 mol/m3	0.01432
439.16 K, Amount density=32.22 mol/m3	0.01431
439.2 K, Amount density=24.58 mol/m3	0.01432
439.47 K, Amount density=17.93 mol/m3	0.01434
439.56 K, Amount density=49.53 mol/m3	0.0143
440.07 K, Amount density=6.32 mol/m3	0.01441
440.61 K, Amount density=3.79 mol/m3	0.01441
441.61 K, Amount density=38.68 mol/m3	0.01437
466.95 K, Amount density=24.58 mol/m3	0.01528
467.33 K, Amount density=10.1 mol/m3	0.0153
467.34 K, Amount density=38.68 mol/m3	0.01528
467.49 K, Amount density=49.53 mol/m3	0.01528
467.62 K, Amount density=32.22 mol/m3	0.01528
467.74 K, Amount density=13.2 mol/m3	0.01531
468.08 K, Amount density=17.93 mol/m3	0.01532
468.85 K, Amount density=3.79 mol/m3	0.01537
496.21 K, Amount density=38.68 mol/m3	0.01626
496.4 K, Amount density=8.17 mol/m3	0.01627
496.41 K, Amount density=17.93 mol/m3	0.01629
496.43 K, Amount density=13.2 mol/m3	0.01627
496.44 K, Amount density=24.58 mol/m3	0.01629
496.48 K, Amount density=49.53 mol/m3	0.01625
496.56 K, Amount density=10.1 mol/m3	0.01629
496.65 K, Amount density=3.79 mol/m3	0.01631
496.97 K, Amount density=32.22 mol/m3	0.0163
525.14 K, Amount density=49.53 mol/m3	0.01724
525.41 K, Amount density=3.79 mol/m3	0.01727
525.42 K, Amount density=8.17 mol/m3	0.01727
526.17 K, Amount density=32.22 mol/m3	0.01727
526.39 K, Amount density=13.2 mol/m3	0.01729
526.84 K, Amount density=24.58 mol/m3	0.0173
527.02 K, Amount density=38.68 mol/m3	0.01727
527.99 K, Amount density=17.93 mol/m3	0.01734
546.79 K, Amount density=8.17 mol/m3	0.018
546.84 K, Amount density=13.2 mol/m3	0.01798
547.13 K, Amount density=3.79 mol/m3	0.01802
547.3 K, Amount density=32.22 mol/m3	0.01801
547.49 K, Amount density=38.68 mol/m3	0.018
548.04 K, Amount density=49.53 mol/m3	0.01803
548.52 K, Amount density=17.93 mol/m3	0.01806
567.4 K, Amount density=13.2 mol/m3	0.01868
567.53 K, Amount density=32.22 mol/m3	0.01872
568.11 K, Amount density=38.68 mol/m3	0.01872
569.26 K, Amount density=3.79 mol/m3	0.01879
569.93 K, Amount density=49.53 mol/m3	0.01875
571.83 K, Amount density=17.93 mol/m3	0.01886
596.93 K, Amount density=13.2 mol/m3	0.01969
597.12 K, Amount density=32.22 mol/m3	0.01975
597.15 K, Amount density=17.93 mol/m3	0.01973
597.28 K, Amount density=49.53 mol/m3	0.01971
597.6 K, Amount density=3.79 mol/m3	0.01977
598.6 K, Amount density=38.68 mol/m3	0.01979
602.56 K, Amount density=8.17 mol/m3	0.01994
